# In patent US11899025B2, “Pharmaceutical composition for preventing or treating neurodegenerative diseases comprising COX2 acetylating agent as active ingredient” (KYUNGPOOK NATIONAL UNIVERSITY INDUSTRY-ACADEMIC COOPERATION …, priority 2018, dated 2024):
# Tests used:
# [1] = target: T1, COX2 (Homo sapiens, UniProt P35354); experiment: LC-MS/MS identification of the COX2 acetylation site; format: biochemical; conditions: FIG. 8d
# T1 sequence (P35354 18-604): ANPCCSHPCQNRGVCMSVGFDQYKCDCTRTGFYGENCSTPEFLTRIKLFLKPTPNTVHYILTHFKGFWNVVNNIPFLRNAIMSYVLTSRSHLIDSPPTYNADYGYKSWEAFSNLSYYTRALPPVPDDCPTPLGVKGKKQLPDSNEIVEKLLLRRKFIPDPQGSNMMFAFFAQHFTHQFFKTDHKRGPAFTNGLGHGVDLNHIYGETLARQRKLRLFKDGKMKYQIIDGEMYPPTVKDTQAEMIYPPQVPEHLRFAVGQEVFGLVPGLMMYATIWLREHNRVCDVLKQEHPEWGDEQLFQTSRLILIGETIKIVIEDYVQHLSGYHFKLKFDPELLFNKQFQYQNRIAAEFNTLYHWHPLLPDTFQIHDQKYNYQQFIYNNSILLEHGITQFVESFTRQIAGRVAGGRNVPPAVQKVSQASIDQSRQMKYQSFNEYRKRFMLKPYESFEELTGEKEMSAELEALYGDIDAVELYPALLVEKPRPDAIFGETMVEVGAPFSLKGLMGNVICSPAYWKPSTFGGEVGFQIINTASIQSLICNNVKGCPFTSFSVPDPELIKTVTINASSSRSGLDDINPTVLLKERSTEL
# Procedure: To confirm the acetylation site of COX2, the COX2 enzyme was precipitated with trichroloacetic acid (Merck) and dried. The dried extract was resuspended in 10 μL of 5M urea solution, and 0.1M ammonium bicarbonate buffer was incubated at 37° C. with 1 μg trypsin (Promega) for 16 hours. Then, the sample was treated with 1M DTT (GE Healthcare) at room temperature for 1 hour and then alkylated with 1M iodoacetamide (Sigma) for 1 hour. Protein samples were loaded onto a ZORBAX 300SB-C18 column for sequencing. Peptides were identified with BioTools 3.2 SR5 (Bruker Daltonics).
# In addition, it was confirmed that serine 565 (S565) against the COX2 peptide 560-[…]-575 was acetylated in the presence of N-acetyl sphingosine (FIG. 8d).
# [2] = tested on: APP/PS1 mice; experiment: Alzheimer's animal model (APP/PS1 mice): immunofluorescence, Thioflavin S, Morris Water Maze; format: in vivo, mouse; conditions: 7-month-old APP/PS1 mice, 5 mg/kg N-acetyl sphingosine, 1 mg/kg FTY720 or 3 uM S1P daily for 4 weeks, intraperitoneal
# Excerpt: It has been approved for mouse experiments by the Kyungpook National University Institutional Animal Care and Use Committee (IACUC). A transgenic mouse line overexpressing APPswe (hAPP695swe) or PS1 (presenilin-1M146V) based on C57BL/6 mice (Charles River, UK) was used. [Hereinafter, APP mouse: mouse overexpressing APPswe, PS1 mouse: mouse overexpressing presenilin-1M146V; GlaxoSmithKline]. As an Alzheimer's (AD) animal model, SphK1 tg (SphK1 gene overexpressing mouse) was crossed with APP mice and APP/PS1 mice to prepare APP/PS1/SphK1 tg mice. Niemanpick (NP-C) animal model, Balb/C (Orient, Wild type), NPC mutant mouse lacking NPC1 gene (Provided by Riken, Japan, NP-C mice; less weight than normal mice of the same age, and severe motor function loss from 4 to 6 weeks of age, limb tremors and seizures appear, and lifespan is approximately 9 to 10 weeks. Is) was used. As an animal model for amyotrophic lateral sclerosis (ALS), a transgenic mouse (FUS) line overexpressing RUS R521C based on C57BL/6 mice (Charles River, UK) was used.
# After fixing the cerebral and hippocampus of the mouse, anti-20G10 (mouse, 1:1000) against amyloid-β (Aβ) 42 and anti-G30 (rabbit, 1:1000) against Aβ 40, anti-MAP2 (chicken, 1:2000), anti-Synaptophysin (mouse, 1:100), anti-Synapsin1 (rabbit, 1:500), anti-PSD95 (mouse, 1:100), anti-Iba-1 (rabbit, 1:500), Anti-GFAP (rabbit, 1:500) was cultured together. The site was analyzed using a laser scanning confocal microscope or Olympus BX51 microscope equipped with Fluoview SV1000 imaging software (Olympus FV1000, Japan). Metamorph software (Molecular Devices) was used to quantify the percentage of the area of the stained area relative to the area of the total tissue.
# In order to confirm the potential effect on learning and memory, MWM (Morris water maze) and fear conditioning experiments were performed. MWM learned the task 4 times a day for 10 days for the mice, the platform was removed on the 11th day, and a probe trial was performed. On the first day of Fear conditioning, the mice were placed in a conditioning chamber, and sound stimulation (10 kHz, 70 dB) and electrical stimulation (0.3 mA, 1 s) were given. On the second day, memory for the space was checked without stimulation in the same conditioning chamber as on the first day, and on the third day, a memory test for fear was performed when only sound stimulation was given in another conditioning chamber. An open field test was performed to evaluate motor ability and immediate activity. In the open field test, the mice were placed in a square box for 10 minutes to measure the overall exercise power, time, and distance.
# (§1) In order to measure the neuroinflammatory resolution factor, after culturing neurons from mouse cerebrum, CM was prepared by treatment with 10 nM N-acetyl sphingosine 1 phosphate (Toronto Research chemicals, C262710) and N-acetyl sphingosine (Sigma, 01912). For COX2 acetylation analysis, neurons were cultured from mouse cerebrum and then treated with 2 uCi [^14C]N-acetyl sphingosine (ARC, ARC1024). In addition, for in vivo experiments, 7-month-old APP/PS1 mice were injected with 5 mg/kg N-acetyl sphingosine (Sigma, 01912), 1 mg/kg FTY720 and 3 uM S1P daily for 4 weeks via intraperitoneal injection. 1 month-old NPC mice were injected with 5 mg/kg N-acetyl sphingosine (Sigma, 01912) and 2-month-old FUS mice with 30 mg/kg N-acetyl sphingosine (Sigma, 01912) daily for 4 weeks via subcutaneous injection.
# The present inventors confirmed AD lesions by injecting N-acetyl sphingosine, one of the COX2 acetylating agents identified through the above experiment, into an APP/PS1 animal model. First, in order to determine the effect of N-acetyl sphingosine on the neuroinflammatory response by secreting neuroinflammatory resolution factor, changes in microglia and astrocytes were observed. […]
# [3] = tested on: APP/PS1 neurons; experiment: neuroinflammatory resolution factor (SPMs) secretion in APP/PS1 neurons after COX2 acetylating agent treatment; format: cell-based, mouse; conditions: 10 nM; FIG. 8b
# Procedure: A commercially available ELISA kit (Biosource) was used, and the hemispheres of mice were homogenized and placed in a buffer containing 0.02M guanidine to prepare a sample for Aβ ELISA. In order to measure the neuroinflammatory resolution factor, conditioned media (CM) was prepared after culturing neurons from mouse cerebrum. Thereafter, according to the manufacturer's manual, ELISA for Aβ and SPM was performed.
# as §1
# First, in order to confirm whether the selected compounds promote the secretion of neuroinflammatory resolution factor in neurons, after treatment with N-acetyl sphingosine 1 phosphate or N-acetyl sphingosine in APP/PS1 neurons, the expression levels of neuroinflammatory resolution factor were confirmed. As a result, it was confirmed that the expression levels of LxA4 and RvE1 in neurons of APP/PS1 mice were recovered when treated with N-acetyl sphingosine 1 phosphate or N-acetyl sphingosine (FIG. 8b).
smiles,measurement,setting,value
CCCCCCCCCCCCC/C=C/[C@@H](O)[C@H](CO)NC(C)=O [N-acetyl sphingosine],acetylation of serine 565 (S565) of COX2 peptide 560-GCPFTSFSVPDPELIK-575,[1],acetylated
same,microglia (Iba1) in brain cortex vs APP/PS1 mice,[2]; FIG. 9a,remarkable decrease
same,astrocytes (GFAP) in brain cortex vs APP/PS1 mice,[2]; FIG. 9b,remarkable decrease
same,amount of Aβ / Aβ deposition (Thioflavin S) vs APP/PS1 mice,[2]; FIG. 9c,significantly lower
same,memory and cognition (Morris Water Maze) vs APP/PS1 mice,[2]; FIG. 9d,improved
same,expression level of LxA4 in neurons of APP/PS1 mice,[3],recovered
same,expression level of RvE1 in neurons of APP/PS1 mice,[3],recovered
